According to patent US20020015941A1, “Method for treatment of neurodegenerative diseases” (The General Hospital Corporation, priority 2000, published 2002):
Like-named read-outs stand apart in the source and are kept apart here.

Legend:
[1] = tested on: Aβ42/Aβtotal in HEK293 cells stably overexpressing human APP; format: cell-based
[2] = tested on: Aβ42/Aβtotal in CHO cells stably overexpressing human APP; test: Aβ sandwich ELISA, CHO cells stably overexpressing human APP; format: cell-based, Chinese hamster

| Compound | ratio of Aβ42/Aβtotal (Aβ42 generation) ([1]; HEK293-APP, SKF96365 100 μM, nifedipine 1 μM, ω-conotoxin GVIA 1 μM, 12 hour treatment) | ratio of Aβ42/Aβtotal (Aβ42 generation) ([2]; CHO-APP, SKF96365 100 μM, nifedipine 1 μM, ω-conotoxin GVIA 1 μM, 12 hour treatment) | ratio of Aβ42/Aβtotal (Aβ42 generation) [1] | ratio of Aβ42/Aβtotal (Aβ42 generation) [2] |
| --- | --- | --- | --- | --- |
| COc1ccc(CCCOC(Cn2ccnc2)c2ccc(OC)cc2)cc1 (stereo not shown) [SKF96365] | specifically elevated | specifically elevated |  |  |
| ω-conotoxin GVIA |  |  | no significant effect | no significant effect |
